Assay results: patent US20260176289A1, “SMALL MOLECULE INHIBITORS OF KRAS PROTEINS” (Merck Sharp & Dohme LLC, priority 2022, published 2026)
Where two headings read alike, the source gives them in different places.

Experiments:
KRAS-WT = KRAS-WT (Homo sapiens, UniProt P01116); experiment: SOS-catalyzed nucleotide exchange assay (Procedure A, TR-FRET), KRAS-WT; format: biochemical; settings: nucleotide exchange, read-out: KRAS WT GNE IC50
Summary of the method: (§1)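 Inhibitors stabilizing the Bodipy-GDP state are detected as retained TR-FRET from a preformed biotinylated RAS/Tb-streptavidin complex. They are preincubated 60 min at room temperature, then human SOS and 3 mM GTP are added. G12V runs 90 min at 1.25 nM RAS/160 nM SOS. G12C (3 nM), WT (1 nM) and NRAS (1.25 nM) run 60 min with 40 nM SOS.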

KRAS-G12D = KRAS-G12D (Homo sapiens, UniProt P01116, G12D); experiment: SOS-catalyzed nucleotide exchange assay (Procedure A, TR-FRET), KRAS-G12D; format: biochemical; settings: nucleotide exchange, read-out: KRAS G12D GNE IC50
Chain of KRAS-G12D (P01116 with tags, fused parts or gaps isoform P01116-2 G12D): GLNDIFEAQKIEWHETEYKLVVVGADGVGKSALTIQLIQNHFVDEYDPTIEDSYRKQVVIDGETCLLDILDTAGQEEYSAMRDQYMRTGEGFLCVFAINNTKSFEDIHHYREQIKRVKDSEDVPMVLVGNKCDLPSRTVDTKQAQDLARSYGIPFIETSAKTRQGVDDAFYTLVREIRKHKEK
Summary of the method: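 Signal ratio (520/495 nm, excitation 340 nm) reports Bodipy-GDP retention on biotinylated RAS after SOS-catalyzed exchange with 3 mM GTP. SOS was 40 nM, except 160 nM for G12V. Room-temperature exchange lasted 60 min (90 min for G12V), following a 60 min compound preincubation.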

KRAS-G12V = KRAS-G12V (Homo sapiens, UniProt P01116, G12V); experiment: SOS-catalyzed nucleotide exchange assay (Procedure A, TR-FRET), KRAS-G12V; format: biochemical; settings: nucleotide exchange, read-out: KRAS G12V GNE IC50
Chain of KRAS-G12V (P01116 with tags, fused parts or gaps isoform P01116-2 G12V): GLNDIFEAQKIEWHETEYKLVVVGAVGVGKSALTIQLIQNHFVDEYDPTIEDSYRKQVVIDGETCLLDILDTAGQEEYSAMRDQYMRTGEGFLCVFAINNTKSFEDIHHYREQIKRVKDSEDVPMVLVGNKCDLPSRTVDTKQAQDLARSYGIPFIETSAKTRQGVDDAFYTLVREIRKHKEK
Summary of the method: as §1

MKN-1 cells = experiment: Cellular phospho-ERK assay, MKN-1 cells (amplified wild-type KRAS); format: cell-based; settings: Homo sapiens, read-out: MKN1 pERK IC50
Description: (§2) Procedure for Cellular Phospho-ERK Assay in KRAS Wild Type and Mutant (G12D, G12V) Cell Lines
(§3) MKN-1 cells (JCRB JCRB0252) containing amplified wild-type KRAS, were cultured in growth medium that contains RPMI 1640-GlutaMAX™-I (ThermoFisher Scientific 61870) containing 10% heat inactivated fetal bovine serum (ThermoFisher Scientific 10091148), 1 mM sodium pyruvate and 10 mM HEPES. PANC08.13 cells (ATCC® CRL-2551™), containing homozygous KRAS-G12D activating mutation, were cultured in growth medium made of RPMI1640-GlutaMAX™-I (ThermoFisher Scientific 61870) containing 15% heat inactivated fetal bovine serum (ThermoFisher Scientific 10091148)). AsPC-1 cells (ATCC® CRL-1682™), containing homozygous KRAS-G12D activating mutation, were cultured in T150 flask in growth medium (RPMI medium 1640-GlutaMAX™-I (ThermoFisher Scientific 61870) containing 10% fetal bovine serum (ThermoFisher Scientific 10091148)). SW620 cells (ATCC® […]), containing homozygous KRAS-G12V activating mutation, were cultured in growth medium that contains RPMI 1640-GlutaMAX™-I (ThermoFisher Scientific 61870) containing 10% heat inactivated fetal bovine serum (ThermoFisher Scientific 10091148).
(§4) Cells for the assay were harvested in growth medium after TrypLE (ThermoFisher scientific 12604021) digestion and were seeded in a 384-well collagen coated cell culture plate (Corning 356702) at a density of 10,000-15,000 cells/20 μL/well, and incubated at 37° C., 5% CO2 overnight. The compound (with 10 mM stock concentration) dose-response titrations were prepared [30 μM final ERK detection assay concentration and 1:3 dilutions, 10-point dose response] and appropriate amounts (270 nL) of test compounds were dispensed in a 384-well intermediate plate using an Echo 550 liquid handler. 30 μL/well of RPMI medium 1640-GlutaMAX™—I was added to the intermediate plate and the contents of the intermediate plate (10 μL/well) were then transferred to the 384-well collagen coated cell culture plate, which was incubated at 37° C., 5% CO2 for 2 hours. After removal of medium from the collagen coated cell culture plate, cells were lysed in lysis buffer from Alpha SureFire® Ultra™ Multiplex p-ERK and total ERK assay kit (PerkinElmer MPSU-PTERK) containing Halt™ Protease and Phosphatase inhibitor cocktail (ThermoFisher Scientific 78446) at room temperature with constant shaking at 300 rpm for 30 minutes. The cell lysates were then transferred to an OptiPlate-384 plate (PerkinElmer 6005620), and the phosphorylation of ERK (p-ERK) and total ERK levels were detected by Alpha SureFire® Ultra™ Multiplex p-EEK kit and total ERK assay kit (PerkinElmer MPSU-PTERK) following the manufacturer's protocol. Assay plates were read on a En Vision Multimode Plate Reader (PerkinElmer), and the ratio of p-ERK vs. total ERK in each well was used as the final readout. Dose response curves were analyzed using a 4-parameter logistic model to calculate IC50 values using Spotfire software.

AsPC-1 cells = experiment: Cellular phospho-ERK assay, AsPC-1 cells (homozygous KRAS-G12D); format: cell-based; settings: Homo sapiens, ASPC1, 2 h, read-out: AsPC1 pERK IC50
Summary of the method: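 p-ERK/total ERK ratio, measured by AlphaLISA SureFire Ultra multiplex in lysates, was fitted to a 4-parameter logistic model for IC50. Compound exposure was 2 h at 37° C, 5% CO2, 10-point 1:3 dilutions from 30 μM final, on cells plated the previous night.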

SW620 cells = experiment: Cellular phospho-ERK assay, SW620 cells (homozygous KRAS-G12V); format: cell-based; settings: Homo sapiens, read-out: SW620 pERK IC50
Description: as §2, §3, §4

[1] = SW-620, 2 hours compound incubation
[2] = amplified wild-type KRAS, 2 hours

Chain of KRAS-WT (P01116 with tags, fused parts or gaps isoform P01116-2): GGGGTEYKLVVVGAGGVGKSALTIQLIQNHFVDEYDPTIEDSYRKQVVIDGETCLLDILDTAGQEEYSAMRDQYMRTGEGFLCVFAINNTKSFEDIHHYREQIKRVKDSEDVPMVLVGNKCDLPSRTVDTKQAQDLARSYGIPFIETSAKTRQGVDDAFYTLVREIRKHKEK

Row | IC50 (KRAS-WT) [nM] | IC50 (KRAS-G12D) [nM] | IC50 (KRAS-G12V) [nM] | IC50 (MKN-1 cells; 2 hours compound incubation) [nM] | IC50 (AsPC-1 cells; 2 hours compound incubation) [nM] | IC50 (SW620 cells; [1]) [nM] | Compound | IC50 (MKN-1 cells; [2]) [nM] | IC50 (AsPC-1 cells; KRAS-G12D, 2 hours) [nM] | IC50 (SW620 cells; SW-620, KRAS-G12V, 2 hours) [nM]
1 | 22.2 | 4.44 | 26.7 | 52.4 | 119 | 66.1 | C[C@@]1(O)COCCN(c2nc(OC[C@]3(CN4CCC5(CC5)C4)CC3(F)F)nc3sc4c(-c5c(C6(F)CC6)c(Cl)cc6[nH]ncc56)nccc4c23)C1 [Ex-262, (6S)-4-(2-(((R)-1-((5-azaspiro[2.4]heptan-5-yl)methyl)-2,2-difluorocyclopropyl)methoxy)-8-(6-chloro-5-(1-fluorocyclopropyl)-1H-indazol-4-yl)pyrido[4′,3′:4,5]thieno[2,3-d]pyrimidin-4-yl)-6-methyl-1,4-oxazepan-6-ol] | – | – | –
2 | 12.5 | 3.09 | 15.5 | 36.3 | 45.7 | 42.8 | C[C@@]1(O)COCCN(c2nc(OC[C@]3(CN4CC5(CCOCC5)C4)CC3(F)F)nc3sc4c(-c5c(C6(F)CC6)c(Cl)cc6[nH]ncc56)nccc4c23)C1 [Ex-248, (6S)-4-(2-(((R)-1-((7-oxa-2-azaspiro[3.5]nonan-2-yl)methyl)-2,2-difluorocyclopropyl)methoxy)-8-(6-chloro-5-(1-fluorocyclopropyl)-1H-indazol-4-yl)pyrido[4′,3′:4,5]thieno[2,3-d]pyrimidin-4-y1)-6-methyl-1,4-oxazepan-6-ol] | – | – | –
3 | 72.3 | 27.8 | 70.6 | 171 | 176 | 130 | C[C@@]1(O)COCCN(c2nc(OC[C@]34C[C@@H](F)CN3CC3(CC3)C4)nc3sc4c(-c5c(C6CC6)c(Cl)cc6[nH]ncc56)nccc4c23)C1 [Ex-220, (6S)-4-(8-(6-chloro-5-cyclopropyl-1H-indazol-4-yl)-2-(((6R,7a′S)-6′-fluorodihydro-1H, 3H-spiro[cyclopro-pane-1,2′-pyrrol-izin]7a′(5′H)-yl)-methoxy)pyrido [4′,3′:4,5]thieno[2,3-d]pyrimidin-4-yl)-6-methyl-1,4-oxaze-pan-6-ol] | – | – | –
4 | 15.7 | 5.45 | 13.9 | 44.4 | 24 | 14.5 | CN(C)C[C@@]1(COc2nc(N3CCOC[C@@](C)(O)C3)c3c(n2)sc2c(-c4c(C5(F)CC5)c(Cl)cc5[nH]ncc45)nccc23)CC1(F)F [Ex-132, (6S)-4-(8-(6-chloro-5-(1-fluorocyclo-propyl)-1H-indazol-4-yl)-2-(((R)-1-((dimethylamino)-methyl)-2,2-di-fluorocyclopropyl)-methoxy)pyrido [4′,3′:4,5]thieno[2,3-d]pyrimidin-4-yl)-6-methyl-1,4-oxaze-pan-6-ol] | – | – | –
5 | 15.2 | 6.04 | 11.4 | 28.4 | 61.7 | 32.1 | C[C@@]1(O)COCCN(c2nc(OC[C@@]34CCCN3C[C@H](F)C4)nc3sc4c(-c5c6cn[nH]c6cc6cccc(Cl)c56)nccc4c23)C1 [Ex-161, (6S)-4-(8-(5-chloro-1H-benzo[f]indazol-4-yl)-2-(((2R,7aS)-2-fluorotetrahydro-1H-pyrrolizin-7a(5H)-yl)methoxy)pyrido[4′,3′:4,5]thieno[2,3-d]pyrimidin-4-yl)-6-methyl-1,4-oxazepan-6-ol] | – | – | –
6 | 7.25 | 3.17 | 5.49 | 25.8 | 31.4 | 13 | CCc1csc2cc3[nH]ncc3c(-c3nccc4c3sc3nc(OC[C@@]56CCCN5C[C@H](F)C6)nc(N5CCOC[C@@](C)(O)C5)c34)c12 [Ex-168, (6S)-4-(8-(5-ethyl-1H-thieno[3,2-f]indazol-4-yl)-2-(((2R,7aS)-2-fluorotetrahydro-1H-pyrrolizin-7a(5H)-yl)methoxy)pyrido [4′,3′:4,5]thieno[2,3-d]pyrimidin-4-yl)-6-methyl-1,4-oxazepan-6-ol] | – | – | –

Continued, compound first:

Row | Compound | IC50 (KRAS-WT) [nM] | IC50 (KRAS-G12D) [nM] | IC50 (KRAS-G12V) [nM] | IC50 (MKN-1 cells; 2 hours compound incubation) [nM] | IC50 (AsPC-1 cells; 2 hours compound incubation) [nM] | IC50 (SW620 cells; [1]) [nM] | IC50 (MKN-1 cells; [2]) [nM] | IC50 (AsPC-1 cells; KRAS-G12D, 2 hours) [nM] | IC50 (SW620 cells; SW-620, KRAS-G12V, 2 hours) [nM]
7 | C/C=C/c1c(C)cc2[nH]ncc2c1-c1nccc2c1sc1nc(OC[C@@]34CCCN3C[C@H](F)C4)nc(N3CCOC[C@@](C)(O)C3)c12 [Ex-64, (6S)-4-(2-(((2R,7aS)-2-fluorotetrahydro-1H-pyrrolizin-7a(5H)-yl)methoxy)-8-(6-methyl-5-((E)-prop-1-en-1-yl)-1H-indazol-4-yl)pyrido[4′,3′:4,5]thieno [2,3-d]pyrimidin-4-yl)-6-methyl-1,4-oxazepan-6-ol] | 250 | 99.1 | 163 | – | – | – | 389 | 486 | 294
8 | C[C@@]1(O)COCCN(c2nc(OC[C@@]34CCCN3C[C@H](F)C4)nc3sc4c(-c5c(-c6ccoc6)c(Cl)cc6[nH]ncc56)nccc4c23)C1 [Ex-71, (6S)-4-(8-(6-chloro-5-(furan-3-yl)-1H-indazol-4-yl)-2-(((2R,7aS)-2-fluorotetrahydro-1H-pyrrolizin-7a(5H)-yl)methoxy)pyrido[4′,3′:4,5]thi-eno[2,3-d]pyrimidin-4-yl)-6-methyl-1,4-oxazepan-6-ol] | 17.6 | 4 | 11.5 | – | – | – | 50.2 | 66.4 | 150
9 | Cc1cc2[nH]ncc2c(-c2nccc3c2sc2nc(OC[C@@]45CCCN4C[C@H](F)C5)nc(N4CCOC[C@@](C)(O)C4)c23)c1C1CC1(F)F (stereo partly drawn) [Ex-63, (6S)-4-(8-(5-(2,2-difluorocyclopropyl)-6-methyl-1H-indazol-4-yl)-2-(((2R,7aS)-2-fluorotetrahydro-1H-pyrrolizin-7a(5H)-yl)methoxy)pyrido[4′,3′:4,5]thi-eno[2,3-d]pyrimidin-4-yl)-6-methyl-1,4-oxazepan-6-ol] | 55.2 | 19.6 | 39.3 | – | – | – | 114 | 185 | 121
10 | C[C@@]1(O)COCCN(c2nc(OC[C@@]34CCCN3CC(=C(F)F)C4)nc3sc4c(-c5c(C6(F)CC6)c(Cl)cc6[nH]ncc56)nccc4c23)C1 [Ex-272, (6S)-4-(8-(6-chloro-5-(1-fluorocyclopropyl)-1H-indazol-4-yl)-2-(((S)-2-(difluoromethylene)tetra-hydro-1H-pyrrolizin-7a(5H)-yl)methoxy)pyri-do[4′,3′:4,5]thi-eno[2,3-d]pyrimidin-4-yl)-6-methyl-1,4-oxazepan-6-ol] | 29.3 | 3.18 | 19.4 | – | – | – | 50.5 | 62.4 | 29.4
